Results: patent US20250302815A1, “PROTEIN TYROSINE PHOSPHATASE TARGETING LIGANDS” (CALICO LIFE SCIENCES LLC, priority 2021, published 2025)

Key:
PTPN2 (B16F10.4 cells) = molecular target: T1, PTPN2 (B16F10.4 cells) (Mus musculus, UniProt Q06180); experiment: HiBiT Degradation B16F10.4 PTPN2; type: cell-based; settings: 24.0 hours
T1 construct: HiBiT; host or cells: B16F10.4
T1 sequence (Q06180 1-406): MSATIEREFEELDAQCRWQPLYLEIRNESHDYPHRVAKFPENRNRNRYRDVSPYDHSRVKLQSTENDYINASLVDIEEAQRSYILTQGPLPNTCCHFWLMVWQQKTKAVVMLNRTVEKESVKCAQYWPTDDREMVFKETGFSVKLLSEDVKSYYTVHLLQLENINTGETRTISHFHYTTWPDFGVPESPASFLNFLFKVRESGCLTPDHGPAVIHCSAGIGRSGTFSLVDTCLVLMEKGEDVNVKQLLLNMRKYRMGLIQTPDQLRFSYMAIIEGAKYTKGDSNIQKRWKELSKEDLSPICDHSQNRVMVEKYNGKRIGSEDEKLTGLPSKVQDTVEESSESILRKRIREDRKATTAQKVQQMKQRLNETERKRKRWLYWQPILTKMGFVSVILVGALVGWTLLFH

[1] = molecular target: T2, PTPN2 (HiBIT-PTPN2 in 293T.109 cells) (Homo sapiens, UniProt P17706); experiment: HiBiT Degradation 293T.109 PTPN2 (Nano-Glo HiBiT Lytic Assay); type: cell-based; settings: 24.0 hours
T2 construct: expressed in transfected cells; host or cells: 293T.109 (293T WT from ATCC)
T2 sequence (P17706 1-415): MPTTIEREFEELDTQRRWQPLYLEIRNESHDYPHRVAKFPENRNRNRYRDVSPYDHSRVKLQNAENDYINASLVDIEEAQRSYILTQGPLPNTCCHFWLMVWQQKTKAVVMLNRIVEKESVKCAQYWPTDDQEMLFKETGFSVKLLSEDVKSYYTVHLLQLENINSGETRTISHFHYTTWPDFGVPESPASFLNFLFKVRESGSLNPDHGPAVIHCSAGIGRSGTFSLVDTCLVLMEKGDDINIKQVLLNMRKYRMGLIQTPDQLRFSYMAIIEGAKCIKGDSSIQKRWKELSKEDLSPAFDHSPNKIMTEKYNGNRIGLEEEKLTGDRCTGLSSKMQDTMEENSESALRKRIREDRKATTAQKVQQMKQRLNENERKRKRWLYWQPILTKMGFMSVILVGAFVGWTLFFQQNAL
Method in brief: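 Degradation read-out: lytic HiBiT luminescence after 24 h treatment (37 °C, 5% CO2) of 5000 293T cells per well expressing HiBiT-fused PTPN2 from an N-terminal tag. Dosing was 11 points, half-log steps down from 10 μM, in duplicate; vehicle-treated and no-reagent wells served as controls.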

| Compound | DC50 (PTPN2 (B16F10.4 cells)) | DC50 [1] |
| --- | --- | --- |
| CC1(C)C[C@@H](Nc2cccc(-c3sc(C(=O)O)c(OCC(=O)O)c3Cl)c2)CCN1S(=O)(=O)Cc1cccc(NC(=O)COc2cccc3c2CN(C2CCC(=O)NC2=O)C3=O)c1 (stereo partly drawn) [Example 29, 3-(carboxymethoxy)-4-chloro-5-[3-[[(4S)-1-[[3-[[2-[2-(2,6-dioxo-3-piperidyl)-1-oxo-isoindolin-4-yl]oxyacetyl]amino]phenyl]methylsulfonyl]-2,2-dimethyl-4-piperidyl]amino]phenyl]thiophene-2-carboxylic acid] | 200 to 1000 nM | 200 to 1000 nM |
| O=C(O)COc1c(C(=O)O)sc(-c2cccc(NC3CCN(S(=O)(=O)C(c4ccccc4)c4cccc(NC(=O)CNc5ccc6c(c5)C(=O)N(C5CCC(=O)NC5=O)C6=O)c4)CC3)c2)c1Cl (stereo not shown) [Example 42, 3-(carboxymethoxy)-4-chloro-5-(3-((1-(((3-(2-((2-(2,6-dioxopiperidin-3-yl)-1,3-dioxoisoindolin-5-yl)amino)acetamido)phenyl)(phenyl)methyl)sulfonyl)piperidin-4-yl)amino)phenyl)thiophene-2-carboxylic acid] | ≥ 1000 nM | 200 to 1000 nM |
| CC1(C)C[C@@H](Nc2cccc(-c3sc(C(=O)O)c(OCC(=O)O)c3Cl)c2)CCN1S(=O)(=O)Cc1cccc(NC(=O)CNc2ccc3c(c2)CN(C2CCC(=O)NC2=O)C3=O)c1 (stereo partly drawn) [Example 37, 3-(carboxymethoxy)-4-chloro-5-[3-[[(4S)-1-[[3-[[2-[[2-(2,6-dioxo-3-piperidyl)-1-oxo-isoindolin-5-yl]amino]acetyl]amino]phenyl]methylsulfonyl]-2,2-dimethyl-4-piperidyl]amino]phenyl]thiophene-2-carboxylic acid] | 200 to 1000 nM | 200 to 1000 nM |
| CC1(C)C[C@H](Nc2cccc(-c3sc(C(=O)O)c(OCC(=O)O)c3Cl)c2)CCN1S(=O)(=O)Cc1cccc(NC(=O)N2CCC(c3ccc4c5c(cccc35)C(=O)N4C3CCC(=O)NC3=O)CC2)c1F (stereo partly drawn) [Example 129, 3-(carboxymethoxy)-4-chloro-5-(3-(((4R)-1-((3-(4-(1-(2,6-dioxopiperidin-3-yl)-2-oxo-1,2-dihydrobenzo[cd]indol-6-yl)piperidine-1-carboxamido)-2-fluorobenzyl)sulfonyl)-2,2-dimethylpiperidin-4-yl)amino)phenyl)thiophene-2-carboxylic acid] | < 50 nM | 200 to 1000 nM |
| CC1(C)C[C@@H](Nc2cccc(-c3sc(C(=O)O)c(OCC(=O)O)c3Cl)c2)CCN1S(=O)(=O)Cc1cccc(NC(=O)C2C[C@@H]3CN(C(=O)COc4cccc5c4CN(C4CCC(=O)NC4=O)C5=O)C[C@@H]3C2)c1 (stereo partly shown) [Example 100] | 200 to 1000 nM | 200 to 1000 nM |
| Cn1c(=O)n(C2CCC(=O)NC2=O)c2cccc(OC3CCN(C(=O)Nc4cccc(CS(=O)(=O)N5CC[C@H](Nc6cccc(-c7sc(C(=O)O)c(OCC(=O)O)c7Cl)c6)CC5(C)C)c4)CC3)c21 (stereo partly shown) [Example 151] | 200 to 1000 nM | 200 to 1000 nM |
| CC1(C)C[C@@H](Nc2cccc(-c3sc(C(=O)O)c(OCC(=O)O)c3Cl)c2)CCN1S(=O)(=O)Cc1cccc(NC(=O)N2CCC(c3ccc4c5c(cccc35)C(=O)N4[C@@H]3CCC(=O)NC3=O)CC2)c1 (single isomer, unassigned) [Example 187a] | < 50 nM | < 50 nM |
| CC1(C)C[C@@H](Nc2cccc(-c3sc(C(=O)O)c(OCC(=O)O)c3Cl)c2F)CCN1S(=O)(=O)Cc1ccc(F)c(NC(=O)N2CCC(c3ccc4c5c(cccc35)C(=O)N4C3CCC(=O)NC3=O)CC2)c1 (single isomer, unassigned) [Example 167] | < 50 nM | 50 to 200 nM |
| Cn1c(=O)n(C2CCC(=O)NC2=O)c2ccc([C@H]3CCN(C(=O)Nc4cccc(CS(=O)(=O)N5CC[C@H](Nc6cccc(-c7sc(C(=O)O)c(OCC(=O)O)c7Cl)c6)CC5(C)C)c4)C[C@@H]3F)cc21 (stereo partly shown) [Example 171] | < 50 nM | < 50 nM |
| CC1(C)C[C@@H](Oc2cccc(-c3sc(C(=O)O)c(OCC(=O)O)c3Cl)c2)CCN1S(=O)(=O)Cc1cccc(NC(=O)N2CCC(c3ccc4c5c(cccc35)C(=O)N4C3CCC(=O)NC3=O)CC2)c1 (stereo partly drawn) [Example 228, 3-(carboxymethoxy)-4-chloro-5-(3-(((4S)-1-((3-(4-(1-(2,6-dioxopiperidin-3-yl)-2-oxo-1,2-dihydrobenzo[cd]indol-6-yl)piperidine-1-carboxamido)benzyl)sulfonyl)-2,2-dimethylpiperidin-4-yl)oxy)phenyl)thiophene-2-carboxylic acid] | < 50 nM | 200 to 1000 nM |
| Cc1cc2cc(C3CCN(C(=O)Nc4cccc(CS(=O)(=O)N5CC[C@H](Nc6cccc(-c7sc(C(=O)O)c(OCC(=O)O)c7Cl)c6)CC5(C)C)c4)CC3)ccc2n1C1CCC(=O)NC1=O (stereo partly drawn) [Example 208, 3-(carboxymethoxy)-4-chloro-5-[3-[[(4S)-1-[[3-[[4-[1-(2,6-dioxo-3-piperidyl)-2-methyl-indol-5-yl]piperidine-1-carbonyl]amino]phenyl]methylsulfonyl]-2,2-dimethyl-4-piperidyl]amino]phenyl]thiophene-2-carboxylic acid] | 200 to 1000 nM | 200 to 1000 nM |
| Cn1c(=O)n(C2CCC(=O)NC2=O)c2ccc(C3CCN(C(=O)Nc4cccc(CS(=O)(=O)N5CC[C@H](Nc6cc(-c7sc(C(=O)O)c(OCC(=O)O)c7Cl)ccc6F)CC5(C)C)c4)CC3)cc21 (stereo partly drawn) [Example 132, 3-(carboxymethoxy)-4-chloro-5-[3-[[(4S)-1-[[3-[[4-[1-(2,6-dioxo-3-piperidyl)-3-methyl-2-oxo-benzimidazol-5-yl]piperidine-1-carbonyl]amino]phenyl]methylsulfonyl]-2,2-dimethyl-4-piperidyl]amino]-4-fluoro-phenyl]thiophene-2-carboxylic acid] | 50 to 200 nM | 200 to 1000 nM |
| CC1(C)CC(Nc2cccc(-c3sc(C(=O)O)c(OCC(=O)O)c3Cl)c2F)CCN1S(=O)(=O)Cc1ccc(F)c(NC(=O)C2CN(C(=O)CNc3cccc4c3CN(C3CCC(=O)NC3=O)C4=O)C2)c1 (stereo not shown) [Example 146, 3-(carboxymethoxy)-4-chloro-5-[3-[[1-[[3-[[1-[2-[[2-(2,6-dioxo-3-piperidyl)-1-oxo-isoindolin-4-yl]amino]acetyl]azetidine-3-carbonyl]amino]-4-fluoro-phenyl]methylsulfonyl]-2,2-dimethyl-4-piperidyl]amino]-2-fluoro-phenyl]thiophene-2-carboxylic acid] | 200 to 1000 nM | < 50 nM |
| CC1(C)C[C@@H](Nc2cccc(-c3sc(C(=O)O)c(OCC(=O)O)c3Cl)c2)CCN1S(=O)(=O)Cc1cc(NC(=O)N2CCC(c3ccc4c5c(cccc35)C(=O)N4C3CCC(=O)NC3=O)CC2)ccc1F (stereo partly drawn) [Example 161, 3-(carboxymethoxy)-4-chloro-5-[3-[[(4S)-1-[[5-[[4-[1-(2,6-dioxo-3-piperidyl)-2-oxo-benzo[cd]indol-6-yl]piperidine-1-carbonyl]amino]-2-fluoro-phenyl]methylsulfonyl]-2,2-dimethyl-4-piperidyl]amino]phenyl]thiophene-2-carboxylic acid] | < 50 nM | 50 to 200 nM |
